Experimental data reported in US8927771B2, “Pharmaceutically acceptable cocrystals of N-[2-(7-methoxyl-1-naphtyl)ethyl]acetamide and methods of their preparation” (Zentiva k.s., priority 2011, dated 2015).

Assays:
[1] = DVS, range of 20-80% RH
Excerpt: A sample of the agomelatine citric acid cocrystal was subjected to DVS analysis ([…] Vapor Sorption). The sample was placed on a microbalance in a controlled humidity chamber and subjected to two cycles of increasing humidity (red and green lines) and two cycles of decreasing humidity (blue and purple lines) as shown in FIG. 4.

[2] = slurried in water, Raman spectra
Protocol: A sample of the agomelatine citric acid cocrystal was slurried in water and the solid analysed by Raman spectroscopy at 20 minute intervals.

[3] = suspensions in organic solvents (alcohols, ketones, esters, alkanes, aromatic hydrocarbons), 30° C., one week, Raman spectroscopy
Protocol: Samples of the agomelatine citric acid cocrystal were maturated as suspensions in a library of organic solvents including alcohols, ketones, esters, alkanes and aromatic hydrocarbons at a temperature of 30° C. for one week.

[4] = 90° C. in a glass capillary for 7 hours, X-ray powder diffraction
Protocol: A sample of the agomelatine citric acid cocrystal was heated to 90° C. in a glass capillary for 7 hours.

[5] = BCS classification system; cited from earlier work

Compound | hygroscopicity [1] | change in mass ([1]; two cycles of increasing and two of decreasing humidity) | state of the solid in water slurry after 20 minutes ([2]; after 20 minutes) | state of the solid in water slurry after 40 minutes ([2]; after 40 minutes) | stability of the crystalline phase in suspension [3] | crystalline phase after heating [4] | BCS solubility class [5]
COc1ccc2cccc(CCNC(C)=O)c2c1.O=C(O)CC(O)(CC(=O)O)C(=O)O [agomelatine citric acid cocrystal, N-[2-(7-methoxy-1-naphthyl)ethyl]acetamide Citric Acid Cocrystal] | not particularly hygroscopic | less than 0.2% | near to complete dissolution of the citric acid | no further changes in the spectrum were observed | generally stable | pure crystalline phase consistent with the agomelatine citric acid cocrystal | 
COc1ccc2cccc(CCNC(C)=O)c2c1 [N-[2-(7-Methoxy-1-naphthyl)ethyl]acetamide] |  |  |  |  |  |  | high solubility drug
